This test relates to P. falciparum 3D7 growth, pLDH absorbance. Description: P. falciparum 3D7 growth inhibition, dose response, strain 3D7 (AID 2305).

Molecules are shown by their SMILES.

As usually defined, the IC50 is the concentration that inhibits the measured activity by half. Read a high IC50 as a need for much substance.

Consider `O=C(/C=C/c1ccc(Cl)cc1Cl)N1CCC(CCN2CCC(c3c[nH]c4ccccc34)CC2)CC1`, for which the IC50 came out at 0.8 µM. Then `Oc1ccccc1Nc1nc(NCc2ccco2)c2ccccc2n1`, with 0.64 µM. Then `NC(=O)c1sc(-n2cnc3ccc(OCC4CCNCC4)cc32)cc1OCc1ccccc1C(F)(F)F`, with 0.75 µM. With `Cc1nc2nc(N)nc(N)c2c(C)c1Cc1cccc(F)c1` the figure was 0.34 µM. Compound `CCN1CCC(N(CCCCCCc2ccc(C(F)(F)F)cc2)C(=O)Cn2c(CCc3cccc(F)c3F)cc(=O)c3ccccc32)CC1` gave an IC50 of 0.93 µM. With `O=S(=O)(c1ccc(OCc2ccc(Cl)cc2)cc1)c1cc2c(cc1OCc1ccccc1)CCN(C1CCC1)CC2` the figure was 1.02 µM; with `Cc1cc2c(cc1C(F)(F)F)N(C(=O)Nc1ccc(C(=O)NCCN3CCCC3)cc1)CC2`, 0.32 µM; with `CCOC(=O)c1ccc(NC(=O)Nc2cccc(-c3ccc(-c4nc5ccc(F)cc5[nH]4)cc3)c2)cc1`, 0.09 µM. With `COc1cccc2cc(C(=O)N[C@@H](CC(C)C)C(=O)N[C@H](/C=N/N3CCOC3=O)CC(C)C)oc12` the figure was 0.74 µM; with `CCNc1cc(-c2cccc(OC)c2)nc(Nc2ccc(F)cc2)n1`, 1.27 µM. With `CC(C)NCc1cccc(-c2cccc(NC(=O)c3cccc(Cl)c3)c2)c1` the figure was 0.59 µM; with `Cc1cc(C)cc(NC(=S)NCCCCN2CCN(c3cccc(Cl)c3)CC2)c1`, 1.35 µM; with `COc1ccc(S(=O)(=O)N(c2cc(Br)cc3c2OCC3)S(=O)(=O)c2ccc(OC)c(N3CCN(C)CC3)c2)cc1N1CCN(C)CC1`, 1.17 µM. With `COc1ccc(S(=O)(=O)N2CCC3(CC2)OCC(=O)NC3c2ccc(Cl)c(Cl)c2)cc1` (stereo not drawn), the IC50 was 0.64 µM. With `CN1CCCC1CCNCc1ccc(-c2ccc(CNCCc3ccccc3)cn2)cc1` (stereo not drawn) the figure was 1.11 µM. With `N#Cc1cccc(CN2CCCN(Cc3ccc(C(=O)Nc4ccc(Cl)cc4)cc3)CC2)c1` the figure was 0.88 µM. With `CCOC(=O)c1cn(CC)c2cc(O[C@@H]3CCN(C(=O)OC(C)(C)C)C3)ccc2c1=O` the figure was 0.29 µM; with `Cc1cc(NC(=O)Nc2ccc3ncccc3c2)c2ccccc2n1`, 0.96 µM; with `CCNCCCC(C)Nc1ccnc2cc(Cl)ccc12` (stereo not drawn), 0.2 µM.

In turn, `Cc1c(F)cc(C(=O)NC2CC2)cc1-c1ccc2c(c1)c(C)nn2S(=O)(=O)c1cccs1` returned an IC50 of 0.94 µM. The compound `CC(=O)c1cccc2c(NC(=O)Nc3ccc4nccc(N5CCN(C)CC5)c4c3)cccc12` had an IC50 of 0.4 µM. This IC50 is about 2.3-fold lower than that of the compound before.

As to `COc1cc2nc(N3CCC(CCCC4CCNCC4)CC3)nc(NCc3ccccn3)c2cc1OC`, the IC50 came to 0.76 µM. Compared with the last compound, the IC50 is about 1.9-fold higher. With `CCN(CC)CCN1C(=O)C(O)(c2ccccc2Cl)c2c1cc(C#N)cc2C(F)(F)F` (stereo not drawn) the figure was 0.95 µM; with `CN1CCCc2cc(NC(=O)c3cc(-c4ccc(Cl)cc4)cs3)ccc2C1`, 0.81 µM. With `CC(=NNC(=S)NCCc1ccccn1)c1ccccn1` the figure was 0.32 µM; with `CCCCCn1c(Sc2ccc(C#N)c([N+](=O)[O-])c2)nnc1-c1ccc(Cl)cc1`, 1.08 µM. With `CSc1nc2nc(C)c(Cc3cccc(C(F)(F)F)c3)c(C)n2n1` the figure was 0.19 µM; with `CCOP(=O)(OCC)c1ccc(OC)c(-c2ccc[nH]2)c1`, 1.19 µM.

For `N#Cc1cccc(C(=O)Nc2cccc(-c3ccc(C(=O)NCCCN4CCOCC4)cc3)c2)c1`, the IC50 worked out at 0.75 µM. The compound `O=C(Nc1ccc(CCN2CCC(c3nc(COCC(F)(F)F)c(-c4ccccc4)o3)CC2)cc1)c1ccc(F)cc1` registered an IC50 of 1.97 µM. For `COc1ccc(Cn2c(SCc3ccc(C)cc3)nc3cc(OC)c(OC)cc3c2=N)cc1Cl`, the IC50 turned out to be 0.98 µM.

Compound `CCN1CCN(CCCCNc2c3ccccc3nc3ccccc23)CC1` yielded a half-inhibitory concentration (IC50) of 0.86 µM.

Turning to `Cc1ccc(C)c(NC(=O)Nc2ccc(C)c(-c3ccc(C(=O)Nc4ccncc4)cc3)c2)c1`, the IC50 came to 0.62 µM.

`CC(C)CC(=O)N1CCNC[C@@H]1C(=O)NCc1ccc(Cl)c(Cl)c1` came in with an IC50 of 0.95 µM.

Regarding `CN1CCN(Cc2ccc(-c3ccc4c(Nc5ccc(Oc6ccccn6)cc5)ccnc4c3)o2)CC1`, the IC50 amounted to 0.14 µM. Then `CC[C@H](C)CNC(=O)c1cncc(-c2ccc(CN3CCC(N4CCCC4)CC3)cc2)c1`, with 0.97 µM. The compound `COc1cc(C=NNc2ccnc3cc(Cl)ccc23)ccc1O` gave an IC50 of 0.13 µM. Then `Cc1cc(Nc2ccc(Oc3ccc(Cl)cc3)cc2)nc(N)n1`, with 0.62 µM.

The compound `CN1CCc2cc(NC(=O)c3cc4ccccc4s3)cc(-c3ccccc3)c2CC1` came in with an IC50 of 0.89 µM. The IC50 values of the last two compounds are within 1.5-fold of each other.

`Cc1cc(NN=Cc2cccc(Cl)c2)c2cc(F)ccc2n1` showed an IC50 of 0.76 µM. This IC50 and that of the compound before are within 1.5-fold of each other. With `COc1ccc(CNC2Cc3ccccc3C2)cc1-c1ccc(S(=O)(=O)NCc2ccccc2)s1` the figure was 0.83 µM. Then `CCOc1ccc2nc(C)cc(NN=Cc3cccc(F)c3)c2c1`, with 0.74 µM. Compound `OCC1CCN(Cc2cccc(C#Cc3cc4ncnc(Nc5ccc(OCc6cccc(F)c6)c(Cl)c5)c4s3)n2)CC1` showed an IC50 of 0.55 µM.

`Cc1cccc2[nH]c(-c3cccc(-c4ccc(C(=O)NCCc5ccc(O)c(=O)[nH]5)cc4)c3)nc12`: the IC50 is 1.19 µM. With `COc1ccc2c(c1)[nH]c1c(C=Cc3ccccc3)nccc12` the figure was 0.38 µM; with `Cc1ccc(NC(=O)NCCCCCN2CCC(c3c[nH]c4ccccc34)CC2)cc1I`, 0.81 µM; with `CCOc1ccc2nc(C)cc(NN=Cc3ccccc3Cl)c2c1`, 0.19 µM.

`CN1CCC(c2cc3c(cc2Br)CCN3C(=O)Nc2ccc(-c3ccncc3)c(Cl)c2)CC1`: the IC50 is 1.01 µM. With `N=C(N)c1ccc(NC(=O)Cc2nc3ccc(C(=N)N)cc3[nH]2)cc1` the figure was 1.37 µM; with `COc1ccccc1-c1ccc2nnc(SCC(=O)Nc3ccc4c(c3)OCCO4)n2n1`, 0.72 µM.

`NC(=O)c1ccccc1Nc1nc(Nc2cccc(N3CCN(CCO)CC3)c2)ncc1Cl` gave an IC50 of 0.04 µM.

The compound `Cc1cc(C(=O)Nc2ccc3c(c2)CCN3C2CCN(Cc3cc(F)cc(F)c3F)C2)no1` (stereo not drawn) came in with an IC50 of 0.28 µM. This IC50 is about 7-fold higher than that of the compound before.

The compound `O=C(/C=C/c1ccc(Cl)c(Cl)c1)NCCCCCN1CCCN(C(=O)Nc2ccc(Cl)c(C(F)(F)F)c2)CC1` displayed an IC50 of 0.73 µM. `COc1ccc(NC(=O)Nc2ccc(-c3ccncc3)c(C(F)(F)F)c2)cc1N1CCN(C)CC1` yielded an IC50 of 0.76 µM.

`Nc1ncc(-c2ccc(Br)cc2)c(N)n1` returned an IC50 of 0.92 µM. With `COc1ccc(NCCCNc2ccnc3ccccc23)cc1` the figure was 0.97 µM; with `O=C(Nc1cccc(C(F)(F)F)c1)Nc1ccc(Cl)c(C(F)(F)F)c1`, 0.89 µM. With `COc1ccc(NC(=O)/C=C/c2ccc(-c3ccccc3)cc2)cc1N1CCN(C)CC1` the figure was 0.91 µM; with `CN1CCN(c2ccnc3ccc(NC(=O)Cc4ccc(Br)c5ccccc45)cc23)CC1`, 0.81 µM. With `COc1cc(C(F)(F)F)cc2[nH]c(CNCCCNc3nc4ccccc4[nH]3)cc12` the figure was 0.28 µM. `COc1cc(Cc2cnc(N)nc2N)cc(OCCn2ccccc2=O)c1OC` yielded a concentration for half-maximal inhibition (IC50) of 0.77 µM.

As for `Oc1ccc(Cl)cc1CN1CCC(CCOC(c2ccccc2)c2ccccc2)CC1`, the half-maximal inhibitory concentration (IC50) was determined as 0.65 µM. Consider `Cc1ccc(C(=O)Nc2cccc(-c3ccc(N4CCN(C)CC4)nn3)c2)cc1[N+](=O)[O-]`, for which the IC50 amounted to 0.33 µM. Turning to `O=C(NC1CCN(Cc2ccc3c(c2)OCCO3)CC1)c1ccc(-c2cccc(C(F)(F)F)c2)s1`, the IC50 is 1.83 µM. This IC50 is about 5.5-fold higher than that of the compound before. Then `Cc1cccc2[nH]c(-c3ccc(-c4cccc(NC(=O)NCc5cccc(F)c5)c4)s3)nc12`, with 0.76 µM. Then `CN(c1ccc(F)cc1)S(=O)(=O)c1ccc(Cl)c(C(=O)Nc2cccc(C#N)c2)c1`, with 0.7 µM; and `CN(C)C(=O)c1ccc(CN(Cc2cccc(OC(C)(C)C)c2)Cc2ccc3c(c2)OCCO3)cc1`, with 0.57 µM; and `c1ccc(CSC2=NNC(c3ccccn3)S2)cc1` (stereo not drawn), with 1.48 µM. With `CN(C(=O)c1ccc(Br)cc1)c1ccccc1[N+](=O)[O-]` the figure was 0.93 µM. As to `O=C(Nc1cc(C(F)(F)F)cc(C(F)(F)F)c1)c1cccc([N+](=O)[O-])c1`, the IC50 is 0.89 µM. In the case of `O=C(NC1CCC(CN2CCC(c3c[nH]c4ccccc34)CC2)CC1)c1cc2cccc([N+](=O)[O-])c2[nH]1` (stereo not drawn), the IC50 was 0.34 µM. Against the preceding compound, the IC50 is about 2.6-fold lower.

`CS(=O)(=O)c1ccc(CNCc2ccc(-c3ccc(-c4nc5ccc(F)cc5[nH]4)s3)cc2)cc1`: the IC50 came out at 0.27 µM. With `COc1ccc(-c2nc(NC(=O)COc3ccc(C(C)=O)cc3)sc2C)cc1` the figure was 0.71 µM. Then `CN(Cc1cc(C(F)(F)F)cc(C(F)(F)F)c1)C(=O)[C@H]1CNC[C@@H]1c1ccc(F)cc1`, with 0.83 µM; and `CN1CCC(N2CCN(Cc3cccc(-c4ccc(-c5nc6ccc(C(F)(F)F)cc6[nH]5)cc4)c3)CC2)CC1`, with 0.14 µM; and `COc1ccccc1C(=O)Nc1cccc(N2CCC(NCc3ccc(-n4cccn4)cc3)CC2)c1`, with 1.19 µM. Regarding `O=[N+]([O-])c1cccc(CNC2CCN(Cc3ccc(Cl)c(Cl)c3)CC2)c1`, the IC50 was determined as 0.46 µM. `CC(Cc1ccc(OCCOc2ccccc2)cc1)NCC(O)c1cccc(C(F)(F)F)c1` (stereo not drawn) registered an IC50 of 0.97 µM. Then `O=C1NC(=O)C(c2ccc(Cl)cc2)=C1Nc1cccc(S(=O)(=O)C(F)(F)F)c1`, with 0.74 µM.

The compound `O=S1C(Cl)=C(c2ccc(Cl)cc2)c2ccc(Cl)cc21` (stereo not drawn) returned an IC50 of 0.99 µM. With `Nc1c2c(nc3ccc(C(=O)Nc4cc(I)c(O)c(I)c4)cc13)CCCC2` the figure was 1.01 µM; with `CCCN(Cc1nnc(-c2cccs2)o1)C(=O)C1COc2ccccc2O1` (stereo not drawn), 0.85 µM; with `CN1CCN(CCCN(Cc2ccc(-c3ccc(CNCc4ccc5c(c4)OCO5)cc3)cc2)C(=O)Nc2ccccc2)CC1`, 0.71 µM. With `CN(C)c1ccc(-c2ccc(C(=O)NC3CCN(Cc4cccc(C(F)(F)F)c4)CC3)s2)cc1` the figure was 0.99 µM.

In turn, `O=C(Cn1c(CCc2cccc(F)c2F)nc(=O)c2ccccc21)N(CCCN1CCCC1)Cc1ccc(-c2ccc(C(F)(F)F)cc2)cc1` had an IC50 of 0.94 µM. This IC50 and that of the compound before are within 1.5-fold of each other. With `COc1ccc2nccc([C@@H](O)CN3CCC(NC(=O)/C=C/c4ccc5cc(C)[nH]c5c4)CC3)c2c1` the figure was 0.73 µM. The compound `Cc1cc(NCCC(=O)NCCOc2ccccc2)nc(Nc2ccccc2)n1` registered an IC50 of 1.06 µM. On to `CC(C)(C)OC(=O)N1CCN(c2ccccc2NC(=O)c2cccc(C(F)(F)F)c2Oc2ccc(F)cc2)CC1`, for which the IC50 was 0.86 µM. This IC50 and that of the compound before are within 1.5-fold of each other.

The values are drawn from PubChem BioAssay AID2305 (GlaxoSmithKline (GSK), 2010).
